Data reported in patent US20240100062A1, “Methods of Treatment With an Iboga Alkaloid” (priority 2022, published 2024).
“Also recorded” adds a separate entry of the source.

Legend:
[1] = system: special operations veterans; assay: Wechsler Adult Intelligence Scale (WAIS-IV) PSI and WMI, Example 1 study; type: in vivo, human
[2] = system: special operations veterans; assay: WHODAS 2.0 disability assessment, Example 1 study; type: in vivo, human; details: for WHODAS 2.0 Self Care subscale, mean: baseline 5.2% ± 9.2%; for WHODAS 2.0 Mobility subscale, mean: baseline 14.7% ± 15.7%
Protocol: (§1) With subjects in the fasting state, an intravenous infusion of 1 gram of magnesium sulfate was administered 1-2 hours prior to treatment. […] Medical staff (MD, RN, or EMT) were onsite at a ratio of at least 1 staff per 2 patients throughout treatment for monitoring and management, but no specific coaching or psychological support was provided during treatment.
Post treatment, each subject was assessed four days after treatment, one month after treatment, and, if willing, one year after treatment. The post-treatment assessments conducted at four days and at one month after treatment included neuropsychological testing, measures of PTSD, depression, anxiety, mystical experiences, functional imaging and EEG. Post-treatment assessments conducted at one year after treatment included PTSD, depression, and anxiety measures.
World Health Organization Disability Assessment Scale 2.0 (WHODAS 2.0) was used as a measure of function. WHODAS was used to assess the impact of health conditions across six life domains (cognition, mobility, self-care, interpersonal, life activities, and community participation) and it is sensitive to change over time (Gold, L. H., J. Am. Acad. Psychiatry Law 42, 9 (2014). Each item in the assessment is rated on a scale ranging from no problems to extreme problems (Üstün, T. B. et al., Measuring health and disability: Manual for WHO disability assessment schedule WHODAS 2.0. (World Health Organization, 2010)). To capture inter-individual variability in disability the WHODAS complex scoring method was used. Raw scores were converted to a metric ranging from 0 (no disability) to 100 (full disability), by calculating the ratio of the participant's score relative to the maximum possible score in each domain as well as to the total score (Id.). A score of 20%-39% was considered mild, 40%-59% was moderate, 60%-79% was moderate-severe and 80%-100% was severe. Scores from baseline were compared to scores from one-month post treatment.

[3] = system: special operations veterans; assay: Safety monitoring (adverse events, QTc by ECG), Example 1 study; type: in vivo, human
Protocol: as §1

[4] = system: special operations veterans; assay: Structural T1w MRI, FreeSurfer regional volume and cortical thickness; type: in vivo, human
Protocol: Structural imaging of the brain was also conducted on some of the subjects of Example 1. Gray matter constitutes about 40% of the brain and white matter constitutes about 60% of the brain. Gray matter contains most of the brain's neuronal cell nodes, it is fully developed once a person reaches their 20's and interprets sensor information from various parts of the body. White matter is made up of bundles which connect various gray matter areas, it develops throughout the 20's and peaks in middle age, Typical metrics analyzed in anatomical (T1-weighted, “T1w”) imaging include volume and/or shape of nuclei (e.g. caudate), volume and/or shape of ventricles of the brain, and cortical thickness (mm). These metrics can be used to study normal and abnormal neuroanatomy and are primarily used to quantify gray matter. A tool called FreeSurfer was applied to images for a T1w structural analysis (volume, cortical thickness) to adjust for bias, remove non-brain matter, segments by tissue, parcels the brain into standardized regions, and provides measurements of those regions. FreeSurfer measurements of whole brain volume, volume by tissue (gray, white, CSF), estimated intracranial volume (ICV), subcortical gray matter volume, cortical volume by region were done. […] In particular, analysis was done to determine if there was any loss in gray matter volume or cortical thickness, whether there was a loss in white matter volume or an increase in presence of white matter hypotensities.
The fMRI images were also inspected to determine the difference in volume in regional areas of the brain from baseline to one month after treatment. FIG. 8A is a bar graph showing the effect size of a change in volume in 47 brain regions indicated along the x-axis. […] The fMRI images were also inspected for whole brain thickness at baseline and one month after treatment. […] FIG. 8B is a bar graph showing the effect size of a cortical thickness change for the brain regions indicated along the x-axis, from baseline to one month after treatment. […] The right and left parahippocampal gyrus are involved in visuospatial processing, including scene perception, navigation, and emotional contextualization. The left orbitofrontal gyrus is involved in impulse control and reward valuation. The left insular cortex is associated with both the affective-perceptual and cognitive-evaluative forms of empathy, as well as awareness of hunger, pain and fatigue. The left entorhinal cortex is a widespread network hub for memory, navigation, and perception of time.

[5] = system: N-methyl-D-aspartate, kappa and mu opioid, sigma-1 and -2, nicotinic acetylcholine, serotonin transporter, and dopamine transporter; details: cited from earlier work

SMILES: CCC1CC2CC3c4[nH]c5ccc(OC)cc5c4CCN(C2)C13 (stereo not drawn) [ibogaine, Ibogaine]
- Working Memory (WMI, WAIS-IV), mean ± SD ([1]; 1-wk post, baseline 55.1 ± 8.3, p(FDR) 0.034): 57.0 ± 9.5 T score
- Working Memory (WMI, WAIS-IV), D ([1]; baseline vs 1-month post): 0.31
- Processing Speed (PSI, WAIS-IV), D ([1]; baseline vs 1-wk post): 0.97
- Working Memory (WMI, WAIS-IV), D ([1]; baseline vs 1-wk post): 0.37
- WHODAS 2.0 Mobility subscale, D ([2]; Baseline vs One-Month): 0.83
- WHODAS 2.0 Self Care subscale, D ([2]; Baseline vs One-Month): 0.51
- WHODAS 2.0 Cognition subscale, D ([2]; Baseline vs Post-Treatment): 0.96
- WHODAS 2.0 Community Participation subscale, D ([2]; Baseline vs Post-Treatment): 0.53
- WHODAS 2.0 Interpersonal subscale, D ([2]; Baseline vs Post-Treatment): 0.60
- WHODAS 2.0 Life Activities subscale, D ([2]; Baseline vs Post-Treatment): 0.48
- WHODAS 2.0 Mobility subscale, D ([2]; Baseline vs Post-Treatment): 0.53
- WHODAS 2.0 Self Care subscale, D ([2]; Baseline vs Post-Treatment): 0.37
- WHODAS 2.0 Self Care subscale, mean ([2]; One-Month, SD 2.9%, p(FDR) 0.009): 1.0% ±
- WHODAS 2.0 Mobility subscale, mean ([2]; One-Month, SD 3.3%, p(FDR) <0.001): 1.3% ±
- WHODAS 2.0 Cognition subscale, mean ([2]; One-Month, SD 7.9%, baseline 36.1% ± 14.6%, p(FDR) <0.001): 5.0% ±
- WHODAS 2.0 Interpersonal subscale, mean ([2]; One-Month, SD 9.5%, baseline 32.3% ± 20.4, p(FDR) <0.001): 4.8% ±
- WHODAS 2.0 Community Participation subscale, mean ([2]; One-Month, SD 13.1%, baseline 35.6% ± 21.1%, p(FDR) <0.001): 5.9% ±
- WHODAS 2.0 Life Activities subscale, mean ([2]; One-Month, SD 16.2%, baseline 41.1% ± 24.8%, p(FDR) <0.001): 9.1% ±
- WHODAS 2.0 Self Care subscale, mean ([2]; Post-Treatment, SD 4.7%, p(FDR) 0.028): 1.9% ±
- WHODAS 2.0 Mobility subscale, mean ([2]; Post-Treatment, SD 13.5%, p(FDR) 0.001): 7.2% ±
- Functioning ([2]; immediately and one-month post-treatment): clinically and statistically significant improvements in functioning
- Participants treated for insomnia ([3]; 1 participant, during oneirogenic effects): 3%
- Participants treated for hypertension ([3]; 2 participants, during oneirogenic effects): 7%
- Participants treated for anxiety ([3]; 3 participants, during oneirogenic effects): 10%
- Participants treated for nausea ([3]; 7 participants, during oneirogenic effects): 23%
- Participants treated for headache ([3]; 12 participants, during oneirogenic effects): 40%
- Transient cerebellar signs such as mild ataxia and intention tremor ([3]; 30 participants): All participants experienced transient cerebellar signs
- Unexpected or serious adverse events ([3]; 30 participants, 12.1±1.2 mg/kg oral ibogaine with IV magnesium sulfate, 1.2 mg/kg): no unexpected or serious treatment-emergent side effects; also recorded: no unexpected or serious adverse events
- QTc prolongation ([3]; continuous 5-lead ECG 12-16 hours after ibogaine): no instances of a concerning prolongation of QTc
- White matter hypointensities (corrected for cerebral white matter), baseline vs. one month post treatment ([4]; 17 subjects, two-tailed p = 0.0789, left tailed p = 0.9606, right-tailed p = 0.0394): Two-tailed: no significant differences
- Subcortical Gray Matter volume, baseline vs. one month post treatment ([4]; 17 subjects, two-tailed p = 0.0949, left tailed p = 0.0475, alpha = 0.05): Two-tailed: no significant differences
- Total Gray Matter volume, baseline vs. one month post treatment ([4]; 17 subjects, two-tailed p = 0.4755, alpha = 0.05): Two-tailed: no significant differences
- Cortical Gray Matter volume, baseline vs. one month post treatment ([4]; 17 subjects, two-tailed p = 0.4847, alpha = 0.05): Two-tailed: no significant differences
- Regional brain volume increases, baseline to one month after treatment ([4]; 47 brain regions (FIG. 8A)): Increases in volume were observed in the cerebral white mater (left) and the left ventral DC
- Regional cortical thickness change ([4]; baseline to one month after treatment (FIG. 8B)): Increases in cortical thickness one-month after treatment was observed in left entorhinal cortex, left-lateral-orbitofrontal pole, parahippocampal gyrus (bilaterally), left insular cortex, and right-pars triangularis (inferior frontal gyrus)
- Left hemisphere mean thickness ([4]; one month after treatment vs baseline, two-tailed p=0.7146, alpha=0.05): no significant difference from baseline
- Right hemisphere mean thickness ([4]; one month after treatment vs baseline, two-tailed, alpha=0.05): no significant difference from baseline
- Inspection of brain volume and thickness for damage ([4]; treated subjects, one month after treatment): no apparent damage to the brain
- Affinity for neurotransmitter receptors [5]: moderate-to-weak affinity
